From ChEMBL document CHEMBL3885881, “DrugMatrix”

Species: Rattus norvegicus
Assay: DrugMatrix - Regimen: Daily Repeat
Format: toxicity, organism-based, Sprague-Dawley
Parameters: regimen Daily Repeat, gender Male, age 6-8 weeks
Settings: in vivo, po, route oral GAVAGE, […]; for ABSOLUTE BASOPHIL / ABSOLUTE EOSINOPHIL / ABSOLUTE LYMPHOCYTE / ABSOLUTE MONOCYTE / ABSOLUTE SEGMENTED NEUTROPHIL / BASOPHIL / EOSINOPHIL / ERYTHROCYTE COUNT / HEMATOCRIT / HEMOGLOBIN / LEUKOCYTE COUNT / LYMPHOCYTE / MEAN CORPUSCULAR HEMOGLOBIN / MEAN CORPUSCULAR HEMOGLOBIN CONCENTRATION / MONOCYTE / NEUTROPHIL / NUCLEATED RED BLOOD CELLS / PLATELET COUNT: tissue Blood; for ALANINE AMINOTRANSFERASE / ALBUMIN / ALKALINE PHOSPHATASE / ASPARTATE AMINOTRANSFERASE / BLOOD UREA NITROGEN / CARBON DIOXIDE / CHLORIDE / CHOLESTEROL / CREATINE PHOSPHOKINASE / CREATININE / GLUCOSE / LACTATE DEHYDROGENASE / LIPASE / PHOSPHORUS / POTASSIUM / SODIUM / TOTAL BILIRUBIN / TOTAL PROTEIN / URIC ACID: tissue Plasma
[1] = 0 mg/kg, 72 h, dose level Control, time 3 day
[2] = 0 mg/kg, 120 h, dose level Control, time 5 day
[3] = 250 mg/kg, 72 h, dose level Low, time 3 day

For `Cc1noc(NS(=O)(=O)c2ccc(N)cc2)c1C` [SULFISOXAZOLE], the “ABSOLUTE BASOPHIL” value [1] was 0 CELLS/uL, the “ABSOLUTE EOSINOPHIL” value [1] was 0 CELLS/uL and the “ABSOLUTE LYMPHOCYTE” value [1] was 11091.17 CELLS/uL. For the same compound, the “ABSOLUTE MONOCYTE” value [1] was 172.17 CELLS/uL, the “ABSOLUTE SEGMENTED NEUTROPHIL” value [1] was 1186.67 CELLS/uL and the BASOPHIL [1] was 0%. The EOSINOPHIL [1] was 0%, the “ERYTHROCYTE COUNT” value [1] was 5.87 x10E6/uL and the HEMATOCRIT [1] was 36.87%. The HEMOGLOBIN [1] was 14.03 G/DL, the “LEUKOCYTE COUNT” value [1] was 12.45 x10E3/uL and the LYMPHOCYTE [1] was 88.67%. For the same compound, the “MEAN CORPUSCULAR HEMOGLOBIN” value [1] was 23.93 pg, the “MEAN CORPUSCULAR HEMOGLOBIN CONCENTRATION” value [1] was 38.1 G/DL and the MONOCYTE [1] was 1.5%. For the same compound, the NEUTROPHIL [1] was 9.83%, the “NUCLEATED RED BLOOD CELLS” value [1] was 0 /100WBC and the “PLATELET COUNT” value [1] was 1150.33 x10E3/uL. For the same compound, the “ALANINE AMINOTRANSFERASE” value [1] was 67.17 u/L, the ALBUMIN [1] was 4.03 G/DL and the “ALKALINE PHOSPHATASE” value [1] was 462.5 u/L. For the same compound, the “ASPARTATE AMINOTRANSFERASE” value [1] was 88 u/L, the “BLOOD UREA NITROGEN” value [1] was 13.17 mg/dL and the “CARBON DIOXIDE” value [1] was 29.33 mmol/L. For the same compound, the CHLORIDE [1] was 101 MEQ/L, the CHOLESTEROL [1] was 69.17 mg/dL and the “CREATINE PHOSPHOKINASE” value [1] was 292.5 u/L. The CREATININE [1] was 0.17 mg/dL, the GLUCOSE [1] was 167.5 mg/dL and the “LACTATE DEHYDROGENASE” value [1] was 198.5 u/L. It also gave an LIPASE [1] of 10.67 u/L, a PHOSPHORUS [1] of 11.73 mg/dL and a POTASSIUM [1] of 5.91 MEQ/L. The SODIUM [1] was 143.3 MEQ/L, the “TOTAL BILIRUBIN” value [1] was 0.18 mg/dL and the “TOTAL PROTEIN” value [1] was 5.7 G/DL. The “URIC ACID” value [1] was 1.3 mg/dL, the “ABSOLUTE BASOPHIL” value [2] was 0 CELLS/uL and the “ABSOLUTE EOSINOPHIL” value [2] was 64.33 CELLS/uL. The “ABSOLUTE LYMPHOCYTE” value [2] was 12494.67 CELLS/uL, the “ABSOLUTE MONOCYTE” value [2] was 117 CELLS/uL and the “ABSOLUTE SEGMENTED NEUTROPHIL” value [2] was 1340.67 CELLS/uL. The BASOPHIL [2] was 0%, the EOSINOPHIL [2] was 0.33% and the “ERYTHROCYTE COUNT” value [2] was 5.82 x10E6/uL. The HEMATOCRIT [2] was 36.97%, the HEMOGLOBIN [2] was 14.18 G/DL and the “LEUKOCYTE COUNT” value [2] was 14.02 x10E3/uL. For the same compound, the LYMPHOCYTE [2] was 89%, the “MEAN CORPUSCULAR HEMOGLOBIN” value [2] was 24.42 pg and the “MEAN CORPUSCULAR HEMOGLOBIN CONCENTRATION” value [2] was 38.4 G/DL. The MONOCYTE [2] was 0.83%, the NEUTROPHIL [2] was 9.83% and the “NUCLEATED RED BLOOD CELLS” value [2] was 0 /100WBC. For the same compound, the “PLATELET COUNT” value [2] was 1097.83 x10E3/uL, the “ALANINE AMINOTRANSFERASE” value [2] was 58.83 u/L and the ALBUMIN [2] was 3.92 G/DL. The “ALKALINE PHOSPHATASE” value [2] was 414.17 u/L, the “ASPARTATE AMINOTRANSFERASE” value [2] was 89.17 u/L and the “BLOOD UREA NITROGEN” value [2] was 16.83 mg/dL. The “CARBON DIOXIDE” value [2] was 29.17 mmol/L, the CHLORIDE [2] was 100.33 MEQ/L and the CHOLESTEROL [2] was 54.5 mg/dL. The “CREATINE PHOSPHOKINASE” value [2] was 386.17 u/L, the CREATININE [2] was 0.23 mg/dL and the GLUCOSE [2] was 184.17 mg/dL. The “LACTATE DEHYDROGENASE” value [2] was 229.17 u/L, the LIPASE [2] was 10.83 u/L and the PHOSPHORUS [2] was 10.88 mg/dL. The POTASSIUM [2] was 5.97 MEQ/L, the SODIUM [2] was 142.2 MEQ/L and the “TOTAL BILIRUBIN” value [2] was 0.12 mg/dL. The “TOTAL PROTEIN” value [2] was 5.63 G/DL, the “URIC ACID” value [2] was 1.55 mg/dL and the “ABSOLUTE BASOPHIL” value [3] was 0 CELLS/uL. The “ABSOLUTE EOSINOPHIL” value [3] was 53.33 CELLS/uL, the “ABSOLUTE LYMPHOCYTE” value [3] was 12619.33 CELLS/uL and the “ABSOLUTE MONOCYTE” value [3] was 200.67 CELLS/uL. For the same compound, the “ABSOLUTE SEGMENTED NEUTROPHIL” value [3] was 1193.33 CELLS/uL, the BASOPHIL [3] was 0% and the EOSINOPHIL [3] was 0.33%. For the same compound, the “ERYTHROCYTE COUNT” value [3] was 5.71 x10E6/uL, the HEMATOCRIT [3] was 36.37% and the HEMOGLOBIN [3] was 14.1 G/DL. For the same compound, the “LEUKOCYTE COUNT” value [3] was 14.07 x10E3/uL, the LYMPHOCYTE [3] was 89.67% and the “MEAN CORPUSCULAR HEMOGLOBIN” value [3] was 24.7 pg. The “MEAN CORPUSCULAR HEMOGLOBIN CONCENTRATION” value [3] was 38.77 G/DL, the MONOCYTE [3] was 1.33% and the NEUTROPHIL [3] was 8.67%. The “NUCLEATED RED BLOOD CELLS” value [3] was 0 /100WBC, the “PLATELET COUNT” value [3] was 1238.67 x10E3/uL and the “ALANINE AMINOTRANSFERASE” value [3] was 58.33 u/L. For the same compound, the ALBUMIN [3] was 4.03 G/DL, the “ALKALINE PHOSPHATASE” value [3] was 426.33 u/L and the “ASPARTATE AMINOTRANSFERASE” value [3] was 80.67 u/L. For the same compound, the “BLOOD UREA NITROGEN” value [3] was 15 mg/dL, the “CARBON DIOXIDE” value [3] was 27.33 mmol/L and the CHLORIDE [3] was 102.67 MEQ/L. The CHOLESTEROL [3] was 67.67 mg/dL, the “CREATINE PHOSPHOKINASE” value [3] was 283.67 u/L and the CREATININE [3] was 0.16 mg/dL. For the same compound, the GLUCOSE [3] was 171.67 mg/dL, the “LACTATE DEHYDROGENASE” value [3] was 137.33 u/L and the LIPASE [3] was 9.67 u/L. It also gave a PHOSPHORUS [3] of 11.9 mg/dL, a POTASSIUM [3] of 6.14 MEQ/L and an SODIUM [3] of 145.13 MEQ/L. The “TOTAL BILIRUBIN” value [3] was 0.13 mg/dL and the “TOTAL PROTEIN” value [3] was 5.6 G/DL.
